For assay [1], the system named is M. tuberculosis H37Rv growth inhibition, glycerol-free medium. The assay is described as follows: confirmation, H37Rv, purified and synthesized compounds, set 4 (AID 504860). Conditions: for IC50: measured here: growth inhibition IC50.
Assay in assay [2]: as above
Conditions: M. tuberculosis H37Rv growth inhibition, glycerol-free medium; at 100 µM (top of the series).

Activity calls are given as the source filed them. No rule for the calls is given here.

As a reminder, the IC90 is the concentration at which the effect reaches the 90% level. The IC50 is the midpoint of a concentration-inhibition curve. High values mean weaker potency in that assay, low ones greater potency in that assay. In the case of `CC(C)CCNC(=O)CSc1nc2c(c(=O)[nH]1)CCC2`, in assay [1], the IC90 is 2.69 µM and the IC50 is 1.68 µM.

The inhibition is the relative decrease from the control value, in per cent. As for `NC(=O)CSc1nc2ccccc2c(=O)[nH]1`, the inhibition in assay [2] is 10.4% (inactive).

Regarding `O=C(CSc1nc2c(c(=O)[nH]1)CCCC2)NC1CCCCC1`, in assay [1], the IC90 is less than 0.01 µM and the IC50 is less than 0.01 µM.

For the molecule `COC(=O)c1ccc(CNc2c(N3CCCC3)c(=O)c2=O)cc1`, in assay [2], the inhibition was 4.83% (inactive).

Take `Cc1cc(Br)ccc1NC(=O)c1cnc(N2CCN(c3ccccn3)CC2)c2ccccc12`: in assay [1], the 50% inhibitory concentration (IC50) was found to be 11.4 µM.

Regarding `Cc1[nH]c(=S)[nH]c(=O)c1C`, the inhibition in assay [2] was 6.28% (inactive).

As for `Cc1nc(SCc2ccccc2Cl)[nH]c(=O)c1C`, in assay [2], the inhibition is 6.97% (inactive).

On to `Cc1cc(=O)[nH]c(SCC(=O)NC2CCCCC2)n1`, for which the inhibition in assay [2] is -0.61% (inactive).

In the case of `CCC(Sc1nc2ccccc2c(=O)[nH]1)C(=O)Nc1cccc(OC)c1` (stereo not drawn), the inhibition in assay [2] was 14.3% (inactive).

Take `CCOC(=O)CSc1nc(C)c(C)c(=O)[nH]1`: in assay [2], the inhibition was 8.77% (inactive).

Regarding `Cn1c(SCC(=O)NC2CCCCC2)nc2ccccc2c1=O`, the inhibition in assay [2] is 6.07% (inactive).

In the case of `Cc1c[nH]c(=S)[nH]c1=O`, the inhibition in assay [2] was 2.03% (inactive).

As for `O=C(CSc1nc2ccccc2c(=O)[nH]1)N1CCOCC1`, the inhibition in assay [2] is 11.1% (inactive).

Regarding `CC1CCN(C(=O)C2CCN(c3nnc(-n4cccc4)s3)CC2)CC1`, in assay [1], the IC90 was 7.33 µM and the IC50 was determined as 3.2 µM.

Consider `Cc1ccc(NC(=O)COC(=O)CCc2c[nH]c3ccccc23)cc1[N+](=O)[O-]`, for which, in assay [1], the 90% effect concentration (IC90) was 7.41 µM and the IC50 is 3.2 µM.

`COc1cccc(NC(=O)CSc2nc3c(c(=O)[nH]2)CCC3)c1`: the inhibition in assay [2] is -4.12% (inactive).

As for `CCC(Sc1nc2ccccc2c(=O)[nH]1)C(=O)NC1CCCCC1` (stereo not drawn), the inhibition in assay [2] was 3.23% (inactive).

Turning to `CN(C)C(=O)CSc1nc2ccccc2c(=O)[nH]1`, the inhibition in assay [2] is 9.4% (inactive).

Turning to `O=c1[nH]c(=S)[nH]c2ccccc12`, the inhibition in assay [2] was 2.16% (inactive).

In the case of `COC(=O)C(C)Oc1ccc(Cc2ncc(C(F)(F)F)cc2Cl)cc1` (stereo not drawn), in assay [1], the IC90 is 5.63 µM and the IC50 stood at 3.62 µM.

Turning to `Cc1cccc(-c2oc3ccc(-c4ccc5c(c4)OCO5)cc3c2C#Cc2cncn2C)c1`, in assay [1], the IC90 was 3.08 µM and the IC50 is 2.5 µM.

Consider `O=C(CSc1nc2c(c(=O)[nH]1)CCC2)NC1CCCCC1`, for which, in assay [1], the IC90 was less than 0.01 µM and the IC50 was less than 0.01 µM.

Turning to `CNC(=O)CSc1nc2ccccc2c(=O)[nH]1`, in assay [1], the IC90 was 99.1 µM and the IC50 is more than 68.7 µM.

Regarding `O=C(CSc1nccc(=O)[nH]1)NC1CCCCC1`, the inhibition in assay [2] is 7.67% (inactive).

As to `COC(=O)C(Nc1nc(SCC(=O)NC2CCCCC2)nc2ccccc12)c1ccccc1` (stereo not drawn), the inhibition in assay [2] was 5.93% (inactive).

Take `Cc1cc(=O)[nH]c(=S)[nH]1`: the inhibition in assay [2] is -3.23% (inactive).

Consider `CCSc1nc(C)c(C)c(=O)[nH]1`, for which the inhibition in assay [2] is 2.48% (inactive).

As for `CC(C)NC(=O)CSc1nc2ccccc2c(=O)[nH]1`, in assay [1], the IC90 was 19.3 µM and the IC50 was 11.5 µM.

Take `CCOC1OC(=O)C(Cl)=C1Nc1ccccc1C` (stereo not drawn): in assay [1], the IC90 is 9.47 µM and the IC50 is 3.2 µM.

As to `O=C(CSc1nc2ccccc2c(=O)[nH]1)NC1CCCCC1`, in assay [1], the IC90 was 0.52 µM and the IC50 was found to be 0.31 µM.

On to `CN(C(=O)CSc1nc2ccccc2c(=O)[nH]1)C1CCCCC1`, for which the inhibition in assay [2] was 9.68% (inactive).

In the case of `CC(Sc1nc2ccccc2c(=O)[nH]1)C(=O)NC1CCCCC1` (stereo not drawn), the inhibition in assay [2] is 6.58% (inactive).

Regarding `CC[N+](C)(CC)CCCCOc1ccc2c(c1)C(=O)c1cc(OCCCC[N+](C)(CC)CC)ccc1-2`, in assay [1], the IC90 was 3.06 µM and the IC50 was 2.14 µM.

Consider `O=c1[nH]c(SCc2ccccc2Cl)nc2c1CCCC2`, for which the inhibition in assay [2] was 9.5% (inactive).

For `Cc1cnc(SCC(=O)NC2CCCCC2)[nH]c1=O`, the inhibition in assay [2] was 3.92% (inactive).

On to `CCSc1nc2ccccc2c(=O)[nH]1`, for which the inhibition in assay [2] is 10.8% (inactive).

Take `Cc1ccc(NC(=O)CSc2nc3ccccc3c(=O)[nH]2)cc1Cl`: the inhibition in assay [2] is 7.6% (inactive).

On to `Cc1cccc(/C=C/C(=O)c2ccc([N+](=O)[O-])o2)c1`, for which, in assay [1], the IC90 is 2.22 µM and the IC50 amounted to 1.46 µM.

Regarding `Cc1nc(SCC(N)=O)[nH]c(=O)c1C`, the inhibition in assay [2] is 4.67% (inactive).

For `O=C(CSc1ncccn1)NC1CCCCC1`, the inhibition in assay [2] was 0.1% (inactive).

For the molecule `CCOc1ccc(-c2cc(C)[n+](CCc3ccc(OC)c(OC)c3)c(-c3ccc(OCC)cc3)c2)cc1`, in assay [1], the IC90 is 1.63 µM and the IC50 was found to be 1.01 µM.

With `c1ccc(/N=C2\N=C(Nc3ccccn3)c3ccccc32)nc1`, in assay [1], the 90% effect concentration (IC90) was 2.46 µM and the IC50 was 1.68 µM.

Consider `Cc1nc(SCC(=O)N(C)c2ccccc2)[nH]c(=O)c1C`, for which the inhibition in assay [2] is 6.73% (inactive).

`COc1ccc(NC(=O)CSc2nc3ccccc3c(=O)[nH]2)cc1`: the inhibition in assay [2] was 11.4% (inactive).

Regarding `Cc1[nH]c2ccccc2c1C(=O)COC(=O)c1ccc([N+](=O)[O-])s1`, in assay [1], the IC90 was 5.21 µM and the IC50 worked out at 2.53 µM.

In the case of `O=C(CSc1ccccn1)NC1CCCCC1`, the inhibition in assay [2] was 6.13% (inactive).

`Cc1nc(SCC(=O)NCCC(C)C)[nH]c(=O)c1C`: in assay [1], the IC90 was 13.3 µM and the IC50 amounted to 8.78 µM.

Turning to `CC1CCN(C(=O)CSc2nc3ccccc3c(=O)[nH]2)CC1`, in assay [2], the inhibition is 8.81% (inactive).

`O=C(CSc1nc2ccccc2c(=O)[nH]1)NCc1ccc(Cl)cc1`: in assay [1], the IC90 is 1.58 µM and the IC50 worked out at 1.07 µM.

Regarding `Cc1nc(SCC(=O)NC2CCCC2)[nH]c(=O)c1C`, in assay [1], the IC90 was 15.6 µM and the IC50 is 9.11 µM.

`Cc1ccc(C(=O)N/N=C(/CC(=O)c2cccs2)C(F)(F)F)cc1`: in assay [1], the IC90 is 2.83 µM and the IC50 worked out at 1.33 µM.

As to `Nc1c(C(=O)NC2CCCCC2)nsc1C(=O)OCC(=O)NC1CCCCC1`, in assay [1], the IC90 was 8.13 µM and the IC50 was 4.25 µM.

In the case of `CCC(Sc1nc2c(c(=O)[nH]1)CCC2)C(=O)Nc1cccc(OC)c1` (stereo not drawn), in assay [2], the inhibition was -0.78% (inactive).

Turning to `COc1cccc(NC(=O)CSc2nc3ccccc3c(=O)[nH]2)c1`, the inhibition in assay [2] was 4.59% (inactive).

Turning to `Cc1cc(C)n2nc(N)c(N=Nc3ccccc3)c2n1`, in assay [1], the IC90 was 6.75 µM and the IC50 was determined as 4.45 µM.

As to `CN1CCC(NC(=O)CSc2nc3ccccc3c(=O)[nH]2)CC1`, the inhibition in assay [2] is 8.01% (inactive).

`Nc1cc(=O)[nH]c(SCC(=O)NC2CCCCC2)n1`: in assay [2], the inhibition was -0.72% (inactive).

For the molecule `CC(C)CCNC(=O)CSc1nc2ccccc2c(=O)[nH]1`, in assay [1], the IC90 is 0.21 µM and the IC50 was less than 0.01 µM.

Regarding `O=C(CSc1nc2ccccc2c(=O)[nH]1)NC1CCCC1`, in assay [1], the IC90 is 0.85 µM and the IC50 turned out to be 0.43 µM.

The record behind these values is PubChem BioAssay AID504860 (Southern Research Specialized Biocontainment Screening …, 2011).
